{"source": "patent US20260256808A1", "about": "“Istaroxime-Containing Intravenous Formulation for the Treatment of Pre-Cardiogenic Shock and Cardiogenic Shock” (Windtree Therapeutics, Inc., priority 2022, published 2026)", "key": {"patients with ADHF": {"test_system": "patients with ADHF", "conditions": "cited from earlier work"}, "[1]": {"test_system": "patients with AHF and exhibiting pre-cardiogenic shock (SCAI stage B)", "assay": "SEISMIC: randomized, double-blind, placebo-controlled study of 24 h istaroxime infusion in pre-cardiogenic shock", "assay_type": "in vivo, human", "procedure": "Pre-CS was defined as defined as systolic blood pressure (SBP)<90 mmHg without hypoperfusion, venous lactate >2 mmol/L and/or mechanical or inotropic support. The inclusion criteria included AHF-related SCAI stage B pre-CS, 18-85 years of age, an ongoing hospitalization for AHF, left ventricular ejection fraction <40%, persistent hypotension (SBP between 75 and 90 mmHg), heart rate of 75-150 bpm and no need at time of screening or planned use for 6 h thereafter of mechanical support or intravenous therapy to increase BR According to the stage B SCAI classification, patients with clinical signs of peripheral hypoperfusion, venous lactate >2 mmol/L and/or on mechanical support or treatment with intravenous vasodilators, inotropes or vasopressors were excluded. Other exclusion criteria were concomitant or planned treatment with oral digoxin (could be randomized if the plasma concentration of digoxin at screening was <0.5 ng/ml); acute coronary syndrome or stroke within the past 3 months; coronary artery bypass graft or percutaneous coronary intervention within the past month or planned in the next month; life-threatening ventricular arrhythmia or implantable cardioverter defibrillator shock within the past month; sustained ventricular tachycardia in the last 3 months or uncontrolled arrhythmia; fever >38° C.; estimated glomerular filtration rate (eGFR)[…]; serum potassium >5.3 or <3.5 mmol/L; stroke or transient ischaemic accident within the past 3 months; and acute respiratory distress syndrome.\nThe patients were randomized centrally, using an interactive response technology, to receive istaroxime or placebo at a ratio of 1:1. Study medication was supplied in uniquely-numbered kits containing identical vials of lyophilized powder (istaroxime plus lactose), reconstituted by adding 5 ml saline to the vial. Istaroxime was administered as a continuous infusion 1.0 μg/kg/min for 24 h. The infusion rate could be decreased at the discretion of the investigator based on the development of tolerability issues (such as nausea), significant bradycardia, or greater than desired BP elevation.\nThe primary efficacy endpoint was the area under the curve representing the change in SBP from baseline, start of study drug infusion, through 6 h (SBP AUC). The secondary endpoints included SBP AUC through 24 h; changes from baseline in SBP (particularly at 6 and 24 h), diastolic blood pressure (DBP) and mean arterial pressure (MAP); changes from baseline in heart rate (HR); treatment failure score (based on death, circulatory, respiratory, or renal mechanical support or intravenous inotrope or vasopressor treatment, and changes in SBP); treatment failure defined as death or need for circulatory, respiratory, or renal mechanical support or intravenous inotrope or vasopressor treatment; increase from baseline in SBP >5% and/or >10 mmHg; changes in quality of life measured by the EuroQol 5 Dimension 5 Level (EQ-5D-5L); change from baseline to 24 h in echocardiography parameters; changes in troponin and N-terminal pro-B-type natriuretic peptide (NT-proBNP); hospital readmission for heart failure and for any cause by day 30; in-hospital worsening heart failure to day 5; and length of hospital stay. In-hospital worsening heart failure was defined as worsening signs and/or symptoms of heart failure since the previous assessment that required an intensification of intravenous therapy for heart failure or mechanical ventilatory, renal, or circulatory support. The safety endpoints were assessed throughout the study and included the incidence of adverse events; changes in vital signs and in 12-lead electrocardiogram (ECG) parameters; incidence of clinically or haemodynamically significant episodes of supraventricular or ventricular arrhythmias detected by continuous ECG monitoring; standard laboratory parameters; renal function measures; cardiac troponin I or T; and mortality through day 30. […]"}, "[2]": {"test_system": "patients hospitalized with ADHF and reduced LV systolic function", "conditions": "0.5-1.0-1.5 μg/kg/min, cited from earlier work"}, "[3]": {"conditions": "24 h Post-Treatment, adjusted least square mean change"}, "[4]": {"conditions": "24 h Post-Treatment, adjusted least square mean change, listed as istaroxime"}, "[5]": {"conditions": "24 h Post-Treatment, mean, n = 29"}}, "note": "“Also recorded” adds a separate entry of the source.", "data": [{"compound": "C[C@]12CCC(=NOCCN)C[C@@H]1C(=O)C[C@@H]1[C@@H]2CC[C@]2(C)C(=O)CC[C@@H]12", "note": "[Istaroxime]", "values": [{"measurement": "E/Ea ratio", "setting": "patients with ADHF; 0.5 μg/kg/min and 1.0 μg/kg/min infused for up to 24 hours, vs placebo", "result": "an improvement in both treatment groups"}, {"measurement": "diastolic function parameters", "setting": "patients with ADHF; measured after 6 hours of infusion", "result": "significant improvements for most of the diastolic function parameters"}, {"measurement": "adjusted SBP increase at 6 h", "setting": "[1]; 6 h after infusion start, (SE), p=0.045 vs placebo", "result": "12.3 (SE 1.71) mmHg"}, {"measurement": "Mitral Regurgitation Mild, number of patients", "setting": "[1]; 24 h Post Treatment", "result": 11}, {"measurement": "Mitral Regurgitation Mild, share of patients", "setting": "[1]; 24 h Post Treatment", "result": "(39%)"}, {"measurement": "Mitral Regurgitation Moderate, number of patients", "setting": "[1]; 24 h Post Treatment", "result": 16}, {"measurement": "Mitral Regurgitation Moderate, share of patients", "setting": "[1]; 24 h Post Treatment", "result": "(57%)"}, {"measurement": "Mitral Regurgitation None, number of patients", "setting": "[1]; 24 h Post Treatment", "result": 1}, {"measurement": "Mitral Regurgitation None, share of patients", "setting": "[1]; 24 h Post Treatment", "result": "(4%)"}, {"measurement": "Cardiac Index, Change from Baseline", "setting": "[1]; [3]", "result": 0.156, "unit": "L/min/m^2"}, {"measurement": "Cardiac Output, Change from Baseline", "setting": "[1]; [3]", "result": 0.23, "unit": "L/min"}, {"measurement": "E/A Ratio, Change from Baseline", "setting": "[1]; [3]", "result": "−0.380"}, {"measurement": "E/Ea Ratio, Change from Baseline", "setting": "[1]; [3]", "result": "−0.615"}, {"measurement": "Ejection Time, Change from Baseline", "setting": "[1]; [3]", "result": -2.807, "unit": "ms"}, {"measurement": "Inferior Vena Cava Diameter, Change from Baseline", "setting": "[1]; [3]", "result": "−2.503", "unit": "mm"}, {"measurement": "Left Atrial Area, Change from Baseline", "setting": "[1]; [3]", "result": "−1.817", "unit": "cm^2"}, {"measurement": "Left Atrial Volume, Change from Baseline", "setting": "[1]; [3]", "result": -7.440, "unit": "mL"}, {"measurement": "Left Ventricular Ejection Fraction, Change from Baseline", "setting": "[1]; [3]", "result": 2.678, "unit": "%"}, {"measurement": "Left Ventricular End-Diastolic Diameter, Change from Baseline", "setting": "[1]; [3]", "result": "−0.668", "unit": "mm"}, {"measurement": "Left Ventricular End-Diastolic Volume, Change from Baseline", "setting": "[1]; [3]", "result": -6.501, "unit": "mL"}, {"measurement": "Left Ventricular End-Systolic Diameter, Change from Baseline", "setting": "[1]; [3]", "result": "−0.719", "unit": "mm"}, {"measurement": "Left Ventricular End-Systolic Volume, Change from Baseline", "setting": "[1]; [3]", "result": -8.692, "unit": "mL"}, {"measurement": "Pulmonary Artery Systolic Pressure, Change from Baseline", "setting": "[1]; [3]", "result": "−7.084", "unit": "mmHg"}, {"measurement": "Stroke Volume Index, Change from Baseline", "setting": "[1]; [3]", "result": 4.001, "unit": "ml/m^2"}, {"measurement": "Tricuspid Annular Plane Systolic Excursion, Change from Baseline", "setting": "[1]; [3]", "result": 0.0860, "unit": "mm"}, {"measurement": "Cardiac Index, Change from Baseline", "setting": "[1]; [4]", "result": "0.16 ± 0.1", "unit": "L/min/m^2"}, {"measurement": "Left Atrial Area, Change from Baseline", "setting": "[1]; [4]", "result": "−1.8+0.5 cm^2"}, {"measurement": "Left Ventricular End-Diastolic Volume, Change from Baseline", "setting": "[1]; [4]", "result": "−6.5+4.9 ml"}, {"measurement": "Left Ventricular End-Systolic Volume, Change from Baseline", "setting": "[1]; [4]", "result": "−8.7+4.2 ml"}, {"measurement": "Cardiac Index, Observed", "setting": "[1]; [5]", "result": 2.1, "unit": "L/min/m^2"}, {"measurement": "Cardiac Output, Observed", "setting": "[1]; [5]", "result": 3.93, "unit": "L/min"}, {"measurement": "E/A Ratio, Observed", "setting": "[1]; [5]", "result": 1.5}, {"measurement": "E/Ea Ratio, Observed", "setting": "[1]; [5]", "result": 12.2}, {"measurement": "Ejection Time, Observed", "setting": "[1]; [5]", "result": 219.0, "unit": "ms"}, {"measurement": "Inferior Vena Cava Diameter, Observed", "setting": "[1]; [5]", "result": 19.5, "unit": "mm"}, {"measurement": "Left Atrial Area, Observed", "setting": "[1]; [5]", "result": 27.1, "unit": "cm^2"}, {"measurement": "Left Atrial Volume, Observed", "setting": "[1]; [5]", "result": 95.2, "unit": "mL"}, {"measurement": "Left Ventricular Ejection Fraction, Observed", "setting": "[1]; [5]", "result": 29.5, "unit": "%"}, {"measurement": "Left Ventricular End-Diastolic Diameter, Observed", "setting": "[1]; [5]", "result": 61.3, "unit": "mm"}, {"measurement": "Left Ventricular End-Diastolic Volume, Observed", "setting": "[1]; [5]", "result": 194.3, "unit": "mL"}, {"measurement": "Left Ventricular End-Systolic Diameter, Observed", "setting": "[1]; [5]", "result": 52.8, "unit": "mm"}, {"measurement": "Left Ventricular End-Systolic Volume, Observed", "setting": "[1]; [5]", "result": 135.7, "unit": "mL"}, {"measurement": "Pulmonary Artery Systolic Pressure, Observed", "setting": "[1]; [5]", "result": 36.8, "unit": "mmHg"}, {"measurement": "Stroke Volume Index, Observed", "setting": "[1]; [5]", "result": 28.3, "unit": "ml/m^2"}, {"measurement": "Tricuspid Annular Plane Systolic Excursion, Observed", "setting": "[1]; [5]", "result": 15.9, "unit": "mm"}, {"measurement": "adjusted change in SBP at 24 h", "setting": "[1]; 24 h after infusion start, (SE), p=0.543 vs placebo", "result": "17.1 (SE 2.36) mmHg"}, {"measurement": "change in DBP", "setting": "[1]; FIG. 3C, up to 96 h, persisting beyond the 24 h of drug administration", "result": "increases were noted"}, {"measurement": "change in MAP", "setting": "[1]; FIG. 4A, persisting beyond the 24 h of drug administration", "result": "increases were noted"}, {"measurement": "adjusted mean 6 h AUC of change in SBP from baseline", "setting": "[1]; infusion start to hour 6, istaroxime iv infusion 24 h, adjusted mean (SE), p=0.017 vs placebo", "result": "53.1 (SE 6.88) mmHg·h"}, {"measurement": "adjusted mean 24 h SBP AUC", "setting": "[1]; infusion start to hour 24, adjusted mean (SE), p=0.025 vs placebo", "result": "291.2 (SE 27.5) mmHg·h"}, {"measurement": "increase of adjusted mean 6 h SBP AUC versus placebo", "setting": "[1]; istaroxime 53.1 vs placebo 30.9 mmHg·h", "result": 72, "unit": "%"}, {"measurement": "increase of adjusted mean 24 h SBP AUC versus placebo", "setting": "[1]; istaroxime 291.2 vs placebo 208.7 mmHg·h", "result": 40, "unit": "%"}, {"measurement": "effect on heart rate / pulse", "setting": "[1]; patients with pre-cardiogenic shock", "result": "without effects on pulse; also recorded: not by increasing the heart rate"}, {"measurement": "HR during infusion", "setting": "[2]; 6-hour infusion", "result": "tended to decrease"}, {"measurement": "SBP during infusion", "setting": "[2]; 6-hour infusion", "result": "slightly increased in a dose-dependent manner"}, {"measurement": "change from baseline in PCWP", "setting": "[2]; after 6 h infusion, vs placebo, plateaued after 3 hours", "result": "dose-dependent improvements in PCWP"}]}]}
